Viscosity data for 16 compounds are collected here from the CheMixHub viscosity set.

Values joined by “and” are separate entries in the source; they are usually repeats but may differ in a detail not shown here. Identical values can stand only once. ± gives the uncertainty stated by the source.

In general, viscosity refers to the resistance of a fluid to flow. Low values mean easy flow, high ones sluggish flow. Consider `C1CC[C@H]2CCCC[C@@H]2C1`, for which the viscosity is 2.118 ± 0.032 mPa·s (293.15 K, 101.3 kPa); 2.14 ± 0.02 mPa·s (293.15 K, 102 kPa); 1.616 ± 0.039 mPa·s (303.15 K, 101 kPa); 1.79 ± 0.02 mPa·s (303.15 K, 102 kPa); 1.3 ± 0.02 mPa·s (323.15 K, 102 kPa).

As to `CC(C)C(C)C`, the viscosity (298 K, 101.33 kPa) is listed as 0.3249 ± 0.0061 mPa·s.

For the compound `CC(C)[C@H](N)C(=O)[O-].CCCC[P+](CCCC)(CCCC)CCCN`, the viscosity (298.15 K, 101 kPa) was found to be 1015 ± 50 mPa·s.

On to `CCCCC[N+](CC)(CC)CC.O=S(=O)([N-]S(=O)(=O)C(F)(F)F)C(F)(F)F`, for which the viscosity (293.15 K, 101.3 kPa) is recorded as 233 ± 47 mPa·s; the viscosity (298.15 K, 101.3 kPa) worked out at 169 ± 34 mPa·s; the viscosity (303.15 K, 101.3 kPa) stood at 126 ± 25 mPa·s; the viscosity (308.15 K, 101.3 kPa) is 96.4 ± 19 mPa·s; the viscosity (313.15 K, 101.3 kPa) is 75.1 ± 15 mPa·s; the viscosity (318.15 K, 101.3 kPa) was 59.6 ± 12 mPa·s. Moreover, the viscosity (323.15 K, 101.3 kPa) was 48 ± 9.6 mPa·s.

For `CCCCOCCCOCCCO`, the viscosity runs as follows: (298.15 K, 101.33 kPa) 4.503 ± 0.064 mPa·s; (308.15 K, 101.33 kPa) 3.313 ± 0.048 mPa·s; (318.15 K, 101.33 kPa) 2.531 ± 0.037 mPa·s.

In the case of `CCCC[n+]1ccccc1.O=S(=O)([N-]S(=O)(=O)C(F)(F)F)C(F)(F)F`, the viscosity came out at 68.87 ± 1.5 mPa·s (293.15 K, 100 kPa); 52.94 ± 1.1 mPa·s (298.15 K, 100 kPa); 41.94 ± 0.88 mPa·s (303.15 K, 100 kPa); 49.4 ± 1.2 mPa·s (303.15 K, 101 kPa); 33.75 ± 0.71 mPa·s (308.15 K, 100 kPa); 27.63 ± 0.58 mPa·s (313.15 K, 100 kPa). For the same compound, the viscosity (313.15 K, 101 kPa) was determined as 33.8 ± 0.8 mPa·s and the viscosity (323.15 K, 101 kPa) was 24.2 ± 0.6 mPa·s.

`CCCCn1cc[n+](C)c1.[Cl][Fe-]([Cl])([Cl])[Cl]`: the viscosity came to 56.56 ± 2.4 mPa·s (293.15 K, 101 kPa); 46 ± 1.9 mPa·s (298.15 K, 101 kPa); 37.95 ± 1.6 mPa·s (303.15 K, 101 kPa); 31.87 ± 1.3 mPa·s (308.15 K, 101 kPa); 27.01 ± 1.1 mPa·s (313.15 K, 101 kPa); 23.24 ± 0.97 mPa·s (318.15 K, 101 kPa). For the same compound, the viscosity (323.15 K, 101 kPa) came out at 20.16 ± 0.85 mPa·s.

Take `CCCOCCO`: the viscosity was 2.575 ± 0.024 mPa·s (293.15 K, 101 kPa); 2.35 ± 0.018 mPa·s and 2.35 ± 0.023 mPa·s (298.15 K, 101 kPa); 2.351 ± 0.029 mPa·s (298.15 K, 101.33 kPa); 2.07 ± 0.016 mPa·s and 2.124 ± 0.021 mPa·s (303.15 K, 101 kPa); 1.895 ± 0.024 mPa·s (308.15 K, 101.33 kPa); 1.448 ± 0.018 mPa·s (318.15 K, 101.33 kPa).

With `CCOCCOCCOCCO`, the viscosity (298.15 K, 101.33 kPa) is given as 7.042 ± 0.079 mPa·s.

Regarding `CCOP(=O)([O-])OCC.CCn1cc[n+](C)c1`, the viscosity (293.15 K, 100 kPa) came to 566 ± 43 mPa·s; the viscosity (298.15 K, 100 kPa) was found to be 396.6 ± 29 mPa·s; the viscosity (303.15 K, 100 kPa) is listed as 285.4 ± 20 mPa·s; the viscosity (308.15 K, 100 kPa) amounted to 208.7 ± 14 mPa·s; the viscosity (313.15 K, 100 kPa) amounted to 155.3 ± 10 mPa·s; the viscosity (318.15 K, 100 kPa) was 117.2 ± 7.5 mPa·s. The viscosity (323.15 K, 100 kPa) came out at 91.75 ± 5.8 mPa·s.

`C[C@H]1CCCC[C@H]1O`: the viscosity is, setting by setting: (298.15 K, 101 kPa) 17.98 ± 0.22 mPa·s; (303.15 K, 101 kPa) 13.53 ± 0.18 mPa·s.

In turn, `C[N+](C)(C)C.NCC(=O)[O-]` yielded a viscosity (303 K, 101 kPa) of 306.2 ± 18 mPa·s.

On to `N#Cc1ccccc1`, for which the viscosity is, setting by setting: (293.15 K, 101 kPa) 1.335 ± 0.035 mPa·s; (293.15 K, 101.33 kPa) 1.382 ± 0.072 mPa·s; (298.15 K, 101 kPa) 1.237 ± 0.032 mPa·s and 1.196 ± 0.012 mPa·s and 1.249 ± 0.034 mPa·s; (298.15 K, 101.33 kPa) 1.282 ± 0.067 mPa·s; (303 K, 100 kPa) 1.099 ± 0.11 mPa·s; (303.15 K, 101 kPa) 1.161 ± 0.03 mPa·s and 1.121 ± 0.014 mPa·s and 1.124 ± 0.01 mPa·s. In addition, the viscosity is, setting by setting: (303.15 K, 101.32 kPa) 1.139 ± 0.0041 mPa·s; (303.15 K, 101.33 kPa) 1.148 ± 0.02 mPa·s; (308 K, 100 kPa) 1.003 ± 0.1 mPa·s; (308.15 K, 101.33 kPa) 1.063 ± 0.02 mPa·s and 1.063 ± 0.018 mPa·s; (313 K, 100 kPa) 0.9545 ± 0.096 mPa·s; (313.15 K, 101 kPa) 0.997 ± 0.026 mPa·s. In addition, the viscosity is 0.993 ± 0.017 mPa·s (313.15 K, 101.33 kPa); 0.931 ± 0.025 mPa·s (318.15 K, 101 kPa); 0.872 ± 0.023 mPa·s and 0.866 ± 0.023 mPa·s (323.15 K, 101 kPa).

In turn, `NCCOCCOCCN.O=S(=O)([N-]S(=O)(=O)C(F)(F)F)C(F)(F)F.[Li+]` returned a viscosity (323.15 K, 101 kPa) of 108.2 ± 6.5 mPa·s.

For `NNc1ccccc1`, the viscosity was 10.09 ± 0.27 mPa·s (303.15 K, 101 kPa); 4.58 ± 0.1 mPa·s and 4.58 ± 0.096 mPa·s (323.1 K, 101 kPa).

`Nc1cccc2ccccc12` returned a viscosity (323.15 K, 101.33 kPa) of 11.2 ± 0.11 mPa·s.
